Source: patent US9040526B2, “Benzylpyrrolidinone derivatives as modulators of chemokine receptor activity” (Bristol-Myers Squibb Company, priority 2010, dated 2015)

Molecular target: T1, CCR2 receptor (Homo sapiens, UniProt P41597)
T1 construct: THP-1 human monocytic leukemic cell line, which expresses endogenous CCR2; endogenous in cells; host or cells: THP-1 human monocytic leukemic cell line (whole cells)
T1 sequence (P41597 1-360 isoform P41597-2): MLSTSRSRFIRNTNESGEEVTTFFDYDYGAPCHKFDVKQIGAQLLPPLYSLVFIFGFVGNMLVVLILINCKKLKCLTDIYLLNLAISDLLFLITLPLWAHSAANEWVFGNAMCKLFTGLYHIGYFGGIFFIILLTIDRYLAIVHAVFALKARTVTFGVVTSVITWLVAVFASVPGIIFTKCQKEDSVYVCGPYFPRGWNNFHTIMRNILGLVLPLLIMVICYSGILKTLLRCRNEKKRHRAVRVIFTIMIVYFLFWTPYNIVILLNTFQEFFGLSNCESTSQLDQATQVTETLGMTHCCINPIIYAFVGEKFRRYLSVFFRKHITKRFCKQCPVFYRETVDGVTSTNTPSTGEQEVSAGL
Assay: THP-1 monocytic cell binding: whole cell-based radioligand competition assay (125I-human MCP-1)
Conditions: THP-1 cells expressing endogenous CCR2; 125I-MCP-1 tracer 0.2 nM; n = 1 unless otherwise noted
Protocol: THP-1 Monocytic Cell Binding: Whole Cell-Based Assay
The human CCR2 binding assay was also established with the THP-1 human monocytic leukemic cell line, which expresses endogenous CCR2, using ^125I-human MCP-1 as the tracer ligand. Radioligand competition binding assays were used for assessment of binding affinity of test compounds to the CCR2 receptor. For radioligand competition studies, 100 μl containing 2.5×10^5 THP-1 cells/well (in assay buffer containing 50 mM HEPES, pH7.4, 5 mM MgCl2, 1 mM CaCl2 and 0.5% BSA) were added to 96-well assay plates containing the test compounds in 3-fold serial dilution, with final concentrations ranging from 5 μM to 100 pM. Subsequently, 50 μl ^125I-MCP-1 radioligand at a final concentration of 0.2 nM in assay buffer were added to the reaction. After a 90 minute incubation period at room temperature, the binding reaction was terminated by harvesting on GF/B filter plates (PerkinElmer Cat. No. 6005177) followed by washing with ice-cold wash buffer (50 mM HEPES, pH 7.4, 0.1% BSA, 0.5 M NaCl) to remove unbound ligand. After washing, the plate was dried for 45 minutes at 60° C. followed by addition of 40 μl MicroScint 20 scintillation fluid, sealed and analyzed by the Packard TopCount reader. Non-specific binding was determined in the presence of 10 μM (a molar excess of 5000 fold) of an in-house CCR2 small molecule antagonist (CCR2 IC50=2 nM). Specific binding of ^125I-MCP-1 was calculated as the difference between total and non-specific binding. The competition data was plotted as a percentage inhibition of radioligand specific bound in the absence of test compound (percent of total signal). After correcting for non-specific binding, IC50 values were determined. The IC50 is defined as the concentration of test compound required to reduce ^125-MCP-1 specific binding by 50% and was calculated using the four parameter logistic equation to fit the normalized data.
Compounds of the present invention were tested in the THP-1 monocytic binding assay described above and the results shown in Table 3 below were obtained.

SMILES	Ki
CC(C)C1(CCNC2CCC(O)CC2)CC2Oc3ccc(C(F)(F)F)cc3CN2C1=O (mixture of isomers) [Example 3i, 2-(2-((1r,4r)-4-hydroxycyclohexylamino)ethyl)-2-isopropyl-7-(trifluoromethyl)-2,3,3a,9-tetrahydro-1H-benzo[e] pyrrolo[2,1-b][1,3]oxazin-1-one]	0.639 µM
CC(C)C1(CCN2CCC(c3ccccc3)CC2)CC2Oc3ccc(C(F)(F)F)cc3CN2C1=O (single isomer, unassigned) [3b, diastereomer 1]	0.934 µM
CC(C)C1(CCN2CCC(c3ccccc3)CC2)CC2Oc3ccc(C(F)(F)F)cc3CN2C1=O (single isomer, unassigned) [3b, diastereomer 2]	0.0378 µM
CC(C)C1(CCN2CCC3(C=Cc4ccccc43)CC2)CC2Oc3ccc(C(F)(F)F)cc3CN2C1=O (single isomer, unassigned) [3f, diastereomer 1]	0.0454 µM
CC(C)C1(CCN2CCC3(C=Cc4ccccc43)CC2)CC2Oc3ccc(C(F)(F)F)cc3CN2C1=O (single isomer, unassigned) [3f, diastereomer 2]	0.011 µM
CC(C)C1(CCNC2CCOCC2)CC2Oc3ccc(C(F)(F)F)cc3CN2C1=O (single isomer, unassigned) [3h, diastereomer 2]	0.495 µM
CC(C)C1(CCN2CCCCC2)CCN(Cc2cc(C(F)(F)F)cc(C(F)(F)F)c2)C1=O (stereo not shown) [Example 1a, 1-(3,5-bis(trifluoromethyl)benzyl)-3-isopropyl-3-(2-(piperidin-1-yl)ethyl)pyrrolidin-2-one]	0.983 µM
CC(C)C1(CCN2CCC(c3ccccc3)CC2)CCN(Cc2cc(C(F)(F)F)cc(C(F)(F)F)c2)C1=O (stereo not shown) [Example 1b, 1-(3,5-bis(trifluoromethyl)benzyl)-3-isopropyl-3-(2-(4-phenylpiperidin-1-yl)ethyl)pyrrolidin-2-one]	0.933 µM
CC(C)C1(CCN2CC[C@@]3(C=Cc4ccccc43)[C@@H](C)C2)CCN(Cc2cc(C(F)(F)F)cc(C(F)(F)F)c2)C1=O (stereo partly drawn) [Example 1c, 1-(3,5-bis(trifluoromethyl)benzyl)-3-isopropyl-3-(2-((1R,3′R)-3′-methylspiro[indene-1,4′-piperidine]-1′-yl)ethyl) pyrrolidin-2-one]	0.736 µM
CC(C)C1(CCCN2CCC(c3ccccc3)CC2)CCN(Cc2cc(C(F)(F)F)cc(C(F)(F)F)c2)C1=O (stereo not shown) [Example 2a, 1-(3,5-bis(trifluoromethyl)benzyl)-3-isopropyl-3-(3-(4-phenylpiperidin-1-yl)propyl)pyrrolidin-2-one]	3.51 µM
CC(C)C1(CCNC(C)(C)C)CC2Oc3ccc(C(F)(F)F)cc3CN2C1=O (stereo not shown) [Example 3a, 2-(2-(tert-butylamino)ethyl)-2-isopropyl-7-(trifluoromethyl)-2,3,3,a,9-tetrahydro-1H-benzo[e]pyrrolo[2,1-b][1,3]oxazin-1-one]	2.54 µM
CC(C)C1(CCN2CCC(c3cccc(C(=O)O)c3)CC2)CC2Oc3ccc(C(F)(F)F)cc3CN2C1=O (stereo not shown) [Example 3c, 3-(1-(2-(2-isopropyl-1-oxo-7-(trifluoromethyl)-2,3,3a,9-tetrahydro-1H-benzo[e]pyrrolo[2,1-b][1,3]oxazin-2-yl)ethyl)piperidin-4-yl)benzoic acid]	2.61 µM
CC(C)C1(CCN2CCC(n3c(=O)[nH]c4ccccc43)CC2)CC2Oc3ccc(C(F)(F)F)cc3CN2C1=O (stereo not shown) [Example 3j, 2-isopropyl-2-(2-(4-(2-oxo-2,3-dihydro-1H-benzo[d]imidazol-1-yl)piperidin-1-yl)ethyl)-7-(trifluoromethyl)-2,3,3a,9-tetrahydro-1H-benzo[e]pyrrolo[2,1-b][1,3] oxazin-1-one]	1.28 µM
CC(C)C1(CCN2CCN(c3ccc(F)cc3)CC2)CC2Oc3ccc(C(F)(F)F)cc3CN2C1=O (stereo not shown) [Example 3k, 2-(2-(4-(4-fluorophenyl)piperazin-1-yl)ethyl)-2-isopropyl-7-(trifluoromethyl)-2,3,3a,9-tetrahydro-1H-benzo[e]pyrrolo[2,1-b][1,3] oxazin-1-one]	1.41 µM
CC(C)C1(CCN2CCN(C)CC2)CC2Oc3ccc(C(F)(F)F)cc3CN2C1=O (stereo not shown) [Example 3l, 2-isopropyl-2-(2-(4-methylpiperazin-1-yl)ethyl)-7-(trifluoromethyl)-2,3,3a,9-tetrahydro-1H-benzo[e]pyrrolo[2,1-b][1,3]oxazin-1-one]	7.91 µM
CC(C)C1(CCN2CCC(O)(c3ccccc3)CC2)CC2Oc3ccc(C(F)(F)F)cc3CN2C1=O (stereo not shown) [Example 3m, 2-(2-(4-hydroxy-4-phenylpiperidin-1-yl)ethyl)-2-isopropyl-7-(trifluoromethyl)-2,3,3a,9-tetrahydro-1H-benzo[e]pyrrolo[2,1-b][1,3]oxazin-1-one]	0.153 µM
CC(C)C1(CCN2CCC(Cc3ccccc3)CC2)CC2Oc3ccc(C(F)(F)F)cc3CN2C1=O (stereo not shown) [Example 3n, 2-(2-(4-benzylpiperidin-1-yl)ethyl)-2-isopropyl-7-(trifluoromethyl)-2,3,3a,9-tetrahydro-1H-benzo[e] pyrrolo[2,1-b][1,3]oxazin-1-one]	1.49 µM
CC(C)C1(CCN2CCc3ccccc3C2)CC2Oc3ccc(C(F)(F)F)cc3CN2C1=O (stereo not shown) [Example 3o, 2-(2-(3,4-dihydroisoquinolin-2(1H)-yl)ethyl)-2-isopropyl-7-(trifluoromethyl)-2,3,3a,9-tetrahydro-1H-benzo[e] pyrrolo[2,1-b][1,3]oxazin-1-one]	3.89 µM
CC(C)C1(CCN2CCC(c3ccccc3)C2)CC2Oc3ccc(C(F)(F)F)cc3CN2C1=O (stereo not shown) [Example 3p, 2-isopropyl-2-(2-(3-phenylpyrrolidin-1-yl)ethyl)-7-(trifluoromethyl)-2,3,3a,9-tetrahydro-1H-benzo[e] pyrrolo[2,1-b][1,3] oxazin-1-one]	0.023 µM
